Data: patent US10654884B2 (Vitae Pharmaceuticals, Inc., priority 2014, dated 2020)

Key:
human CD73 = molecular target: T1, human CD73 (Homo sapiens, UniProt P21589); assay: Inhibition of 5′-Nucleotidase Activity of CD73 (Assay 1); assay type: biochemical; settings: human CD73 4 ng/ml, 50 μM CMP, 20 min at RT, malachite green readout; read-out: Assay 1: IC50, inhibition of 5′-nucleotidase activity of CD73
T1 construct: purchased R&D Systems 5795-EN-010
T1 sequence (P21589 27-549): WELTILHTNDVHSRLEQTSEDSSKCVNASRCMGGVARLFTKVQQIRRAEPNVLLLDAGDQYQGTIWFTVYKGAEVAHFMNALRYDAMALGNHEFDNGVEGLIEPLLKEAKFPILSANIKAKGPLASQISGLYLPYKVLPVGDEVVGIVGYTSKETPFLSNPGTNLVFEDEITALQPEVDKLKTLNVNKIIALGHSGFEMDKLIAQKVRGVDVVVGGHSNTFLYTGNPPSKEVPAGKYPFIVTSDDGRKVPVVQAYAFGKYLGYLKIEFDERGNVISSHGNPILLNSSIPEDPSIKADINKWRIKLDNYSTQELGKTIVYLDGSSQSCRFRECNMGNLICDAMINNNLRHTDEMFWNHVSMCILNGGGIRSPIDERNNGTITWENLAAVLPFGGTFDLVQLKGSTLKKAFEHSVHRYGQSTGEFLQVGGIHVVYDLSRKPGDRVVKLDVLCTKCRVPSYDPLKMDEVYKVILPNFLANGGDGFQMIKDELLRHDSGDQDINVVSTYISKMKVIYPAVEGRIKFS
Procedure, shortened: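 Human CD73 (4 ng/ml final) was incubated with 50 μM CMP in 25 mM Tris-HCl pH 7.4, 0.005% Brij-35 for 20 min at RT. Reactions were stopped with malachite green reagent and absorbance was read at 620 nm. IC50 came from a 4-parameter logistic fit.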

[1] = molecular target: T2, CD73 on U138 neuroglioma cells (Homo sapiens, UniProt P21589); assay: Inhibition of Ecto-5′-Nucleotidase Activity in U138 Neuroglioma Cells (Assay 2); assay type: cell-based; settings: 50 μM CMP, 2 hr at 37° C., malachite green readout, read-out: Assay 2: IC50, inhibition of ecto-5′-nucleotidase activity in U138 neuroglioma cells
T2 construct: U138 neuroglioma cells, which express CD73 on their surface; endogenous in cells; host or cells: U138 neuroglioma cells (ATCC)
T2 sequence (P21589 27-549): T1 sequence (P21589 27-549)
Procedure, shortened: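 Whole-cell CD73 activity in U138 human neuroglioma cells seeded the day before, washed free of phosphate, then given test compound dilutions with 50 μM CMP in HEPES-buffered saline, pH 7.4, DMSO ≤0.1%. Incubated 2 hr at 37° C; released inorganic phosphate in supernatant measured by malachite green; IC50 by nonlinear regression.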

## O=C(O)C(Cc1ccc(F)cc1)(OC[C@H]1O[C@@H](n2cnc3c(NC4CCCC4)nc(Cl)nc32)[C@H](O)[C@@H]1O)C(=O)O [Example 97, 2-(((2R,3S,4R,5R)-5-(2-chloro-6-(cyclopentylamino)-9H-purin-9-yl)-3,4-dihydroxytetrahydrofuran-2-yl)methoxy)-2-(4-fluorobenzyl)malonic acid]
Human CD73
  IC50: 100 to 1000 nM
[1]
  IC50: 100 to 1000 nM

## Nc1nc(Cl)nc2c1ncn2[C@@H]1O[C@H](COC(CC2CC2)(C(=O)O)C(=O)O)[C@@H](O)[C@H]1O [Example 98, 2-(((2R,3S,4R,5R)-5-(6-amino-2-chloro-9H-purin-9-yl)-3,4-dihydroxytetrahydrofuran-2-yl)methoxy)-2-(cyclopropylmethyl)malonic acid]
Human CD73
  IC50: < 100 nM
[1]
  IC50: < 100 nM

## CCOC(=O)C(SC[C@H]1O[C@@H](n2cnc3c(N)nc(Cl)nc32)[C@H](O)[C@@H]1O)P(=O)(O)O (stereo partly drawn) [Example 99, (1-((((2S,3S,4R,5R)-5-(6-amino-2-chloro-9H-purin-9-yl)-3,4-dihydroxytetrahydrofuran-2-yl)methyl)thio)-2-ethoxy-2-oxoethyl)phosphonic Acid]
Human CD73
  IC50: 100 to 1000 nM
[1]
  IC50: 100 to 1000 nM
